In EPA's ToxRefDB 2:

Columns and labels:
rat [1] = details: Subchronic oral toxicity in rodents, sprague dawley, Gavage/Intubation, dose end: 13 week, group: systemic
rat [2] = details: Prenatal developmental toxicity study, sprague dawley, Oral, Gavage/Intubation, dose end: 19 GD
rat [3] = details: Prenatal developmental toxicity study, sprague dawley, Oral, Gavage/Intubation, dose end: 19 GD; remark: listed apart in the source
rabbit [4] = details: Prenatal developmental toxicity study, dutch, Oral, Gavage/Intubation, dose end: 18 GD
rat [5] = details: Subchronic oral toxicity in rodents, sprague dawley, Feed, dose end: 13 week, group: systemic
mouse [6] = details: Subchronic oral toxicity in rodents, cd1, Feed, dose end: 6 week, group: systemic
rat [7] = details: Sub-acute repeat dose toxicity, fischer, Oral, Gavage/Intubation, dose end: 16 day, group: systemic
rat [8] = details: Prenatal developmental toxicity study, sprague dawley, Oral, Gavage/Intubation, dose end: 15 GD
mouse [9] = details: Carcinogenicity; b6c3f1; Oral; Gavage; dose end: 103 week; group: systemic; systemic / organ weight / kidney / absolute + systemic / pathology microscopic / kidney / nephropathy + systemic / pathology microscopic / …
rat [10] = details: Prenatal developmental toxicity study, wistar, Oral, Gavage/Intubation, dose end: 15 GD
rat [11] = details: Subchronic oral toxicity in rodents, fischer, Gavage/Intubation, dose end: 13 week, group: systemic
mouse [12] = details: Sub-acute repeat dose toxicity, b6c3f1, Oral, Gavage/Intubation, dose end: 16 day, group: systemic
rat [13] = details: Combined chronic toxicity/carcinogenicity, fischer, Oral, Gavage/Intubation, dose end: 103 week, group: systemic
rat [14] = details: Subchronic oral toxicity in rodents, fischer, Gavage/Intubation, dose end: 13 week, group: systemic; remark: listed apart in the source
rabbit [15] = details: Sub-acute dermal toxicity, new zealand white, Topical, dose end: 21 day, group: systemic, systemic / pathology gross / skin / scabbing + systemic / pathology microscopic / skin / acanthosis + systemic / pathology microscopic / …
rat [16] = details: Carcinogenicity; Osborne-Mendel; Oral; Feed; dose end: 80 week; group: systemic; systemic / in life observation / clinical signs / [other] + systemic / in life observation / clinical signs / alopecia + systemic / in life …
mouse [17] = details: Prenatal developmental toxicity study, cd1, Oral, Gavage/Intubation, dose end: 17 GD
rat [18] = details: Prenatal developmental toxicity study; sprague dawley; Oral; Gavage/Intubation; dose end: 20 GD; group: maternal; systemic / in life observation / body weight / body weight gain
hamster = details: Developmental neurotoxicity study; golden syrian; Oral; Gavage/Intubation; dose end: 125 PND; group: cannot be grouped; systemic / in life observation / mortality / mortality
mouse [19] = details: Multigenerational reproductive toxicity study, other, Oral, Feed, dose end: 1 generation
mouse [20] = details: Carcinogenicity; b6c3f1; Oral; Feed; dose end: 80 week; group: systemic; systemic / in life observation / clinical signs / aggressive behavior + systemic / in life observation / clinical signs / alopecia + …
[21] = systemic / pathology microscopic / stomach / edema + systemic / pathology microscopic / stomach / hyperkeratosis + systemic / pathology …
[22] = group: developmental, systemic / in life observation / body weight / fetal weight
[23] = group: maternal, systemic / in life observation / clinical signs / salivation + systemic / in life observation / body weight / body weight + systemic / in …
[24] = group: maternal, reproductive / reproductive performance / estrous cycle / corpora lutea
[25] = group: maternal, systemic / in life observation / body weight / body weight + systemic / in life observation / body weight / body weight gain + systemic / in…
[26] = group: developmental, developmental / developmental malformation / bone / unossified + systemic / in life observation / body weight / fetal weight
[27] = group: maternal, systemic / in life observation / body weight / body weight gain + systemic / in life observation / mortality / mortality
[28] = group: maternal, systemic / in life observation / body weight / body weight gain + systemic / in life observation / mortality / mortality + reproductive / …
[29] = systemic / hematology / leukocyte (wbc) count differential / leukocyte (wbc)
[30] = systemic / in life observation / body weight / body weight gain + systemic / pathology microscopic / stomach / [other] + systemic / …
[31] = systemic / in life observation / clinical signs / piloerection + systemic / organ weight / heart / absolute + systemic / pathology gross / …
[32] = systemic / organ weight / kidney / absolute + systemic / organ weight / kidney / relative to body weight + systemic / pathology microscopic…
[33] = systemic / pathology gross / intestine large / dilatation
[34] = group: developmental, developmental / developmental malformation / general / runts + systemic / in life observation / body weight / fetal weight
[35] = group: maternal, systemic / in life observation / body weight / body weight gain
[36] = group: maternal, systemic / in life observation / body weight / body weight gain + systemic / in life observation / clinical signs / mucoid stools + systemic…
[37] = systemic / in life observation / clinical signs / alopecia + systemic / in life observation / clinical signs / urogenital staining
[38] = systemic / in life observation / clinical signs / abnormal posture + systemic / in life observation / clinical signs / fur (altered …
[39] = systemic / pathology microscopic / kidney / nephropathy + systemic / urinalysis / coporphoryin / coporphoryin
[40] = systemic / clinical chemistry / creatinine / creatinine + systemic / clinical chemistry / urea nitrogen / urea nitrogen + systemic / organ …
[41] = systemic / clinical chemistry / creatinine / creatinine + systemic / clinical chemistry / urea nitrogen / urea nitrogen + systemic / …
[42] = group: developmental, developmental / developmental malformation / bone / absent + developmental / developmental malformation / bone / ossification sites + …
[43] = group: maternal, systemic / in life observation / body weight / body weight gain + systemic / in life observation / mortality / mortality + systemic / organ …
[44] = group: maternal, systemic / organ weight / liver / relative to body weight
[45] = group: parental, systemic / in life observation / mortality / mortality
[46] = group: reproductive, reproductive / reproductive performance / mating / mating + reproductive / offspring survival early / litter size / litter size

## O=C(CBr)OCC=CCOC(=O)CBr [1,4-Bis(bromoacetoxy)-2-butene]
Rat [1]; systemic / clinical chemistry / calcium / calcium + systemic / clinical chemistry / glucose / glucose + systemic / clinical chemistry / urea…
  NEL: 39.1 mg/kg/day
Rat [1]; [21]
  LOAEL: 4.5 mg/kg/day
  NOAEL: < 4.5 mg/kg/day
Rat [2]; [22]
  LEL: 35 mg/kg/day
  LOAEL: 35 mg/kg/day
  NEL: 20 mg/kg/day
  NOAEL: 20 mg/kg/day
Rat [2]; group: maternal, systemic / in life observation / clinical signs / salivation
  LOAEL: 20 mg/kg/day
Rat [2]; [23]
  NEL: 5 mg/kg/day
  NOAEL: 5 mg/kg/day
Rat [2]; group: maternal, systemic / in life observation / clinical signs / salivation + systemic / in life observation / clinical signs / fur (altered appearance) + …
  LEL: 20 mg/kg/day
Rat [3]; [22]
  LEL: 50 mg/kg/day
  LOAEL: 50 mg/kg/day
  NEL: 25 mg/kg/day
  NOAEL: 25 mg/kg/day
Rat [3]; [24]
  LEL: 25 mg/kg/day
  NEL: < 25 mg/kg/day
Rat [3]; [25]
  LOAEL: 50 mg/kg/day
  NOAEL: 25 mg/kg/day

## Clc1nc(Cl)nc(Nc2ccccc2Cl)n1 [Anilazine]
Rabbit [4]; [26]
  LEL: 75 mg/kg/day
  LOAEL: 75 mg/kg/day
  NEL: 40 mg/kg/day
  NOAEL: 40 mg/kg/day
Rabbit [4]; [27]
  LEL: 40 mg/kg/day
  LOAEL: 40 mg/kg/day
Rabbit [4]; [28]
  NEL: 15 mg/kg/day
  NOAEL: 15 mg/kg/day
Rat [5]; [29]
  LOAEL: 45.9 mg/kg/day
  NOAEL: < 45.9 mg/kg/day
Rat [5]; systemic / organ weight / liver / relative to body weight + systemic / organ weight / lung / relative to body weight + systemic / organ …
  NEL: 600 mg/kg/day
Mouse [6]; [30]
  LOAEL: 1380 mg/kg/day
  NOAEL: 339 mg/kg/day
Mouse [6]; [31]
  LEL: 334 mg/kg/day
  NEL: < 334 mg/kg/day

## Oc1ccc(Cl)cc1Cc1ccccc1 [Clorophene]
Rat [7]; [32]
  LOAEL: 1000 mg/kg/day
  NOAEL: 500 mg/kg/day
Rat [7]; [33]
  LEL: 62.5 mg/kg/day
  NEL: < 62.5 mg/kg/day
Rat [8]; [34]
  LEL: 1000 mg/kg/day
  LOAEL: > 1000 mg/kg/day
  NEL: 300 mg/kg/day
  NOAEL: ≥ 1000 mg/kg/day
Rat [8]; [25]
  LOAEL: > 1000 mg/kg/day
  NEL: 100 mg/kg/day
  NOAEL: ≥ 1000 mg/kg/day
Rat [8]; group: maternal, systemic / in life observation / body weight / body weight + systemic / in life observation / water consumption / water consumption
  LEL: 300 mg/kg/day
Mouse [9]
  LEL: 120 mg/kg/day
  LOAEL: 120 mg/kg/day
  NEL: < 120 mg/kg/day
  NOAEL: < 120 mg/kg/day
Rat [10]; [22]
  LEL: 375 mg/kg/day
  LOAEL: 375 mg/kg/day
  NEL: 75 mg/kg/day
  NOAEL: 75 mg/kg/day
Rat [10]; [35]
  LEL: 75 mg/kg/day
  LOAEL: 75 mg/kg/day
Rat [10]; [36]
  NEL: 15 mg/kg/day
  NOAEL: 15 mg/kg/day
Rat [11]; [37]
  LEL: 30 mg/kg/day
  NEL: < 30 mg/kg/day
Rat [11]; [32]
  LOAEL: 480 mg/kg/day
  NOAEL: 240 mg/kg/day
Mouse [12]; [38]
  LOAEL: > 1000 mg/kg/day
  NEL: 62.5 mg/kg/day
  NOAEL: ≥ 1000 mg/kg/day
Mouse [12]; [33]
  LEL: 125 mg/kg/day
Rat [13]; systemic / in life observation / clinical signs / urogenital staining + systemic / organ weight / heart / absolute + systemic / organ weight…
  NEL: 240 mg/kg/day
Rat [13]; [39]
  LOAEL: 30 mg/kg/day
  NOAEL: < 30 mg/kg/day
Rat [14]; [40]
  LOAEL: 240 mg/kg/day
  NOAEL: 120 mg/kg/day
Rat [14]; [41]
  LEL: 30 mg/kg/day
  NEL: < 30 mg/kg/day
Rabbit [15]
  LEL: 5 mg/kg/day
  LOAEL: 5 mg/kg/day
  NEL: 1 mg/kg/day
  NOAEL: 1 mg/kg/day

## ClC1=C(Cl)[C@]2(Cl)[C@@H]3[C@H]4C[C@H]([C@@H]5O[C@H]45)[C@@H]3[C@@]1(Cl)C2(Cl)Cl [Endrin]
Rat [16]
  LEL: 0.125 mg/kg/day
  LOAEL: > 0.25 mg/kg/day
  NEL: < 0.125 mg/kg/day
  NOAEL: ≥ 0.25 mg/kg/day
Mouse [17]; [42]
  LEL: 1 mg/kg/day
  LOAEL: > 2 mg/kg/day
  NEL: 0.5 mg/kg/day
  NOAEL: ≥ 2 mg/kg/day
Mouse [17]; [43]
  LOAEL: > 2 mg/kg/day
  NOAEL: ≥ 2 mg/kg/day
Mouse [17]; [44]
  LEL: 0.5 mg/kg/day
  NEL: < 0.5 mg/kg/day
Rat [18]
  LEL: 0.3 mg/kg/day
  LOAEL: > 0.45 mg/kg/day
  NEL: 0.15 mg/kg/day
  NOAEL: ≥ 0.45 mg/kg/day
hamster
  LEL: 1.5 mg/kg/day
  LOAEL: > 1.5 mg/kg/day
  NOAEL: ≥ 1.5 mg/kg/day
Mouse [19]; [45]
  LEL: 0.75 mg/kg/day
  LOAEL: > 0.75 mg/kg/day
  NEL: < 0.75 mg/kg/day
  NOAEL: ≥ 0.75 mg/kg/day
Mouse [19]; [46]
  LEL: 0.75 mg/kg/day
  LOAEL: > 0.75 mg/kg/day
  NEL: < 0.75 mg/kg/day
  NOAEL: ≥ 0.75 mg/kg/day
Mouse [20]
  LEL: 0.24 mg/kg/day
  LOAEL: > 0.48 mg/kg/day
  NEL: < 0.24 mg/kg/day
  NOAEL: ≥ 0.48 mg/kg/day
